These results are taken from patent publication US8329899B2, “Pyrazole compounds that modulate HSP90 activity” (Synta Pharmaceuticals, Corp., priority 2005, dated 2012).

The experiment relates to Her2. The experiment is described as follows: Degradation of Her2 in BT-474 cells, Method 1 (Western blot). The settings on record: 0.5 μM, overnight. The class given is cell-based, Human. The method, then:
Human high-Her2 breast carcinoma BT474 (HTB-20), SK-BR-3 (HTB-30) and MCF-7 breast carcinoma (HTB-22) from American Type Culture Collection, Va., USA were grown in Dulbecco's modified Eagle's medium with 4 mM L-glutamine and antibiotics (100 IU/ml penicillin and 100 ug/ml streptomycine; GibcoBRL). To obtain exponential cell growth, cells were trypsinized, counted and seeded at a cell density of 0.5×10^6 cells/ml regularly, every 3 days. All experiments were performed on day 1 after cell passage.
BT-474 cells are treated with 0.5 μM, 2 μM, or 5 μM of 17AAG (a positive control) or 0.5 μM, 2 μM, or 5 μM of a compound of the invention overnight in DMEM medium. After treatment, each cytoplasmic sample is prepared from 1×10^6 cells by incubation of cell lysis buffer (#9803, cell Signaling Technology) on ice for 10 minutes. The resulting supernatant used as the cytosol fractions is dissolved with sample buffer for SDS-PAGE and run on a SDS-PAGE gel, blotted onto a nitrocellulose membrane by using semi-dry transfer. Non-specific binding to nitrocellulose is blocked with 5% skim milk in TBS with 0.5% Tween at room temperature for 1 hour, then probed with anti-Her2/ErB2 mAb (rabbit IgG, #2242, Cell Signaling) and anti-Tubulin (T9026, Sigma) as housekeeping control protein. […]
Background: Immunoblotting shows a protein as a band on a membrane.

`C=CCNC1=C2C[C@@H](C)C[C@H](OC)[C@H](O)[C@@H](C)/C=C(\C)[C@H](OC(N)=O)[C@@H](OC)/C=C\C=C(/C)C(=O)NC(=CC1=O)C2=O` [Compound 17AAG]: the “degradation of Her2” value was “partial degradation”.
